These results are taken from patent US11447503B2, “Pyridine carbamates and their use as GLUN2B receptor modulators” (JANSSEN PHARMACEUTICA NV, priority 2019, dated 2022).

The target of series [1] is human GluN1/GluN2B NMDA receptors (Homo sapiens, UniProt Q05586+Q13224). The experiment in a line: Cell-based calcium flux (FLIPR) assay on cloned human GluN1/GluN2B ion channels expressed in mammalian cells. The note with it: standard assay; glutamate ~EC40, 10 μM glycine; stable Tet-On cell line. A digest of the protocol:
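Tet-On-induced stable cells expressing human GluN1/GluN2B, Calcium 5 dye. Compounds preincubated 5 min (agonist check), then glutamate at ~EC40 plus 10 μM glycine added for 5 min; Mg2+ and buffer composition differ between standard and HTS formats. FLIPR Tetra fluorescence normalised to control wells; (+)MK-801 as antagonist control.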
In general terms: A change in cytosolic calcium serves as a functional read-out for many receptors and channels.

The nature of series [2]: Liver microsomal stability assay (extraction ratio). The series is classed as in vitro ADME. The note with it: test compound 1 μM; 0.5 mg/mL liver microsomes, NADPH, 37° C.; species not stated (method: mouse, rat, and human). Here is the method: 5.4. Liver Microsomal Stability Assay (Extraction Ratio)
Microsomal stability studies (see, Chrovian et al, “H-Pyrrolo[3,2-b]pyridine GluN2B-Selective Negative Allosteric Modulators”. ACS Med Chem Lett. 2019 Jan. 10; 10(3):261-266) were conducted on a Biomek® FX Robotic Liquid Handling Workstation (Beckman Coulter, Brea, Calif.), which consists of a 96-channel pipette head, a 12-position workstation deck, and a plate incubator. Test compounds (1 μM) were spiked in a reaction mix consisting of 100 mM potassium phosphate buffer (pH 7.4), 3 mM MgCl2, and 0.5 mg/mL liver microsomes from mouse, rat, and human (BD Gentest). The reaction was brought to 37° C. and initiated by adding NADPH to a final concentration of 1 mM. After mixing on the platedeck, 50 μL aliquots were excised from the reaction plate at 0, 5, 10, 20, 40, and 60 min and quenched with four volumes of acetonitrile spiked with […] of the internal standard phenytoin. Quenched plates were centrifuged at 5700 rpm for 10 min at 4° C., and supernatant was diluted 1:3 in water before LC/MS/MS analysis. The compound half-lives were derived from plots of the In of percent remaining compound over time to determine the intrinsic clearance. The predicted hepatic clearance was derived from the intrinsic clearance value using equations from the well-stirred model (Current Drug Metabolism, 2008, 9, 940-951), where no correction was made plasma protein binding and the blood to plasma concentration ratio was assumed to be one. The extraction ratio (ER) was calculated by dividing the predicted hepatic clearance by species blood flow (Q), where Q is 90, 55, and 21.7 mL/min/kg for mouse, rat and human, respectively.
(In general: Liver microsomes are a subcellular fraction often used to study metabolism.)

human GluN1/GluN2B NMDA receptors, sequence (Q13224 27-1484, other chains not shown): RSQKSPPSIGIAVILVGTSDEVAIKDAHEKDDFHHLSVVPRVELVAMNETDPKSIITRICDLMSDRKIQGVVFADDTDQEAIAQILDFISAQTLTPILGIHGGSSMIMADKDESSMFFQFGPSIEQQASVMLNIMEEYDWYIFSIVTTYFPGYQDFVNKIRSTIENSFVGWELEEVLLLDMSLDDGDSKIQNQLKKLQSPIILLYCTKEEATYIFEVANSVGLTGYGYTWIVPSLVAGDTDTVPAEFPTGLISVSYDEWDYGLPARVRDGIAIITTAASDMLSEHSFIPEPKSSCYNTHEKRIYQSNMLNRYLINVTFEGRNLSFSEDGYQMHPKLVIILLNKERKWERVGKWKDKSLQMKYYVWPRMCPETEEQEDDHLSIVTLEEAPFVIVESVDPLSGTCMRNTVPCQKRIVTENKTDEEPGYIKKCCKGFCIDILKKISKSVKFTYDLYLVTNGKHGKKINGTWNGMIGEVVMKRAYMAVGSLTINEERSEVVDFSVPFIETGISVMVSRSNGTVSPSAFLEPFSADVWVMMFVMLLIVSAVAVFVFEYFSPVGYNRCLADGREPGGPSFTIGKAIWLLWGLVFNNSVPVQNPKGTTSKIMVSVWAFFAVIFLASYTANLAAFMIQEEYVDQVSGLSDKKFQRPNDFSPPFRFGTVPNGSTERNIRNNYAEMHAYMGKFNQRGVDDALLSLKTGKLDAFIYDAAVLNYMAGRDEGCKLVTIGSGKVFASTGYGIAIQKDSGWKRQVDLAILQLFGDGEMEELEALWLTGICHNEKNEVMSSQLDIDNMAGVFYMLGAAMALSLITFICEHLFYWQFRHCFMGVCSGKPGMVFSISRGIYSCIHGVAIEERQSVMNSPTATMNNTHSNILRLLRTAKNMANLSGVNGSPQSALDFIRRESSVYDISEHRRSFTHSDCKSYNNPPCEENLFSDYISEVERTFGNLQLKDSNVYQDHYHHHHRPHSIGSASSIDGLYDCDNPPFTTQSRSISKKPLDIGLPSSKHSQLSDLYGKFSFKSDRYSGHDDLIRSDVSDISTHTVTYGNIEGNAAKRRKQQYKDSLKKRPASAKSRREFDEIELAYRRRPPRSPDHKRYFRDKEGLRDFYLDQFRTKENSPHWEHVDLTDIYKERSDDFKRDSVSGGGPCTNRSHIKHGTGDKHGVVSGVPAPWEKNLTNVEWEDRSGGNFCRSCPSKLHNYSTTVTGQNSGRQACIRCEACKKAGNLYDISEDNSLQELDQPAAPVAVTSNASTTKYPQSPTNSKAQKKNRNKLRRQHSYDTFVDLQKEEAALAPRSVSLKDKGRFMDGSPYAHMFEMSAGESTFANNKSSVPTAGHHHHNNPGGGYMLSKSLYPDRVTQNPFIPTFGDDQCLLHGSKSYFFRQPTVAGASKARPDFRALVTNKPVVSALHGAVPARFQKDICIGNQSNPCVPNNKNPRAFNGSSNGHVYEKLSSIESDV

As to `O=C1OCCN1Cc1cncc(-c2ccc(F)c(C(F)F)c2)c1` [Example 22, 3-[[5-[3-(Difluoromethyl)-4-fluoro-phenyl]-3-pyridyl]methyl]oxazolidin-2-one], the IC50 (usually the midpoint of a concentration-inhibition curve) in series [1] came out at 11 nM. In addition, the “Extraction Ratio @ 1 μM” value in series [2] is recorded as 0.63. In the same order, the values of `Cc1ncc(-c2ccc(F)c(C(F)F)c2)cc1CN1CCOC1=O` [Example 90, 3-[[5-[3-(Difluoromethyl)-4-fluoro-phenyl]-2-methyl-3-pyridyl]methyl] oxazolidin-2-one] are 13 nM and 0.60. For the compound `Cc1ncc(-c2ccc(F)c(C(F)F)c2)cc1CN1CCCOC1=O` [Example 97, 3-[[5-[3-(Difluoromethyl)-4-fluoro-phenyl]-2-methyl-3-pyridyl]methyl]-1,3-oxazinan-2-one], in series [1], the IC50 stood at 27 nM. In series [2], the “Extraction Ratio @ 1 μM” value was 0.55. Consider `O=C1OCCCN1Cc1cncc(-c2ccc(F)c(OC(F)F)c2)c1` [Example 1, 3-[[5-[3-(Difluoromethoxy)-4-fluoro-phenyl]-3-pyridyl]methyl]-1,3-oxazinan-2-one], for which, in series [1], the concentration for half-maximal inhibition (IC50) worked out at 10 nM. Moreover, the “Extraction Ratio @ 1 μM” value in series [2] turned out to be 0.49. On to `C[C@H]1CN(Cc2cncc(-c3ccc(F)c(C(F)F)c3)c2)C(=O)O1` (single isomer, unassigned) [Example 27, (S*)-3-[[5-[3-(Difluoromethyl)-4-fluoro-phenyl]-3-pyridyl]methyl]-5-methyl-oxazolidin-2-one], for which the 50% inhibitory concentration (IC50) in series [1] stood at 14 nM. The “Extraction Ratio @ 1 μM” value in series [2] amounted to 0.42. In the same order, the values of `O=C1OCCCN1Cc1cncc(-c2ccc(F)c(C(F)F)c2)c1` [Example 38, 3-[[5-[3-(Difluoromethyl)-4-fluoro-phenyl]-3-pyridyl]methyl]-1,3-oxazinan-2-one] are 9 nM and below 0.298. Turning to `O=C1OCCCN1Cc1cncc(-c2ccc(Cl)c(OC(F)F)c2)c1` [Example 53, 3-[[5-[4-chloro-3-(difluoromethoxy)phenyl]-3-pyridyl]methyl]-1,3-oxazinan-2-one], the “Extraction Ratio @ 1 μM” value in series [2] was 0.61. As to `COc1ncc(-c2ccc(F)c(OC(F)F)c2)cc1CN1CCOC1=O` [Example 119, 3-[[5-[3-(Difluoromethoxy)-4-fluoro-phenyl]-2-methoxy-3-pyridyl]methyl]oxazolidin-2-one], the IC50 in series [1] stood at 12 nM. On the same count and under the same terms, under `Cc1cc(-c2cnc(C)c(CN3CCCOC3=O)c2)cc(F)c1F` [Example 70, 3-[[5-(3,4-Difluoro-5-methyl-phenyl)-2-methyl-3-pyridyl]methyl]-1,3-oxazinan-2-one] stands 13 nM. In the case of `CC(c1cncc(-c2ccc(F)c(C(F)F)c2)c1)N1CCOC1=O` (racemic) [Example 60, (R/S)-3-[1-[5-[3-(difluoromethyl)-4-fluoro-phenyl]-3-pyridyl]ethyl]oxazolidin-2-one], the IC50 in series [1] was found to be 785 nM. Moreover, the “Extraction Ratio @ 1 μM” value in series [2] amounted to 0.42. With `[2H]C([2H])(c1cc(-c2ccc(F)c(C)c2)cnc1C)N1CCCOC1=O` [Example 57, 3-[Dideuterio-[5-(4-fluoro-3-methyl-phenyl)-2-methyl-3-pyridyl]methyl]-1,3-oxazinan-2-one], the half-maximal inhibitory concentration (IC50) in series [1] was 23 nM. Regarding `CC1CN(Cc2cncc(-c3ccc(F)c(OC(F)F)c3)c2)C(=O)O1` (single isomer, unassigned) [Example 8, (R*)-3-[[5-[3-(Difluoromethoxy)-4-fluoro-phenyl]-3-pyridyl]methyl]-5-methyl-oxazolidin-2-one], the IC50 in series [1] was 11 nM. Regarding `COc1ncc(-c2ccc(F)c(Cl)c2)cc1CN1CCOC1=O` [Example 108, 3-[[5-(3-Chloro-4-fluoro-phenyl)-2-methoxy-3-pyridyl]methyl]oxazolidin-2-one], the half-maximal inhibitory concentration (IC50) in series [1] is 32 nM. Turning to `O=C1OCCN1Cc1cc(-c2ccc(F)c(OC(F)F)c2)cnc1OC(F)F` [Example 133, 3-[[2-(Difluoromethoxy)-5-[3-(difluoromethoxy)-4-fluoro-phenyl]-3-pyridyl]methyl]oxazolidin-2-one], the IC50 in series [1] was found to be 76 nM. On the same count and under the same terms, under `CC(C)C1CN(Cc2cncc(-c3ccc(F)c(C(F)F)c3)c2)C(=O)O1` (single isomer, unassigned) [Example 36, (R*)-3-[[5-[3-(Difluoromethyl)-4-fluoro-phenyl]-3-pyridyl]methyl]-5-isopropyl-oxazolidin-2-one] stands 31 nM. In the case of `Cc1ncc(-c2ccc(F)c(C(F)F)c2)cc1CN1C(=O)OCC1C` (racemic) [Example 95, (R/S)-3-[[5-[3-(difluoromethyl)-4-fluoro-phenyl]-2-methyl-3-pyridyl]methyl]-4-methyl-oxazolidin-2-one], in series [1], the 50% inhibitory concentration (IC50) was 113 nM. With `[2H]C([2H])(c1cncc(-c2ccc(F)c(C(F)F)c2)c1)N1CCOC1=O` [Example 54, 3-[Dideuterio-[5-[3-(difluoromethyl)-4-fluoro-phenyl]-3-pyridyl]methyl]oxazolidin-2-one], the half-inhibitory concentration (IC50) in series [1] was found to be 13 nM. Besides, in series [2], the “Extraction Ratio @ 1 μM” value is recorded as 0.61. For the compound `Cc1ncc(-c2ccc(Cl)c(Cl)c2)cc1CN1CCCOC1=O` [Example 73, 3-[[5-(3,4-Dichlorophenyl)-2-methyl-3-pyridyl]methyl]-1,3-oxazinan-2-one], the IC50 in series [1] is 19 nM. Turning to `O=C1OCCN1Cc1cncc(-c2ccc(Cl)c(OC(F)F)c2)c1` [Example 47, 3-[[5-[4-Chloro-3-(difluoromethoxy)phenyl]-3-pyridyl]methyl]oxazolidin-2-one], in series [1], the IC50 was found to be 11 nM. The same measure, in the same setting: with `C[C@@H]1COC(=O)N1Cc1cc(-c2ccc(F)c(OC(F)F)c2)cnc1C(C)(F)F` [Example 144, (4R)-3-[[2-(1,1-Difluoroethyl)-5-[3-(difluoromethoxy)-4-fluoro-phenyl]-3-pyridyl]methyl]-4-methyl-oxazolidin-2-one] the figure was 157 nM; with `COc1ncc(-c2ccc(F)c(C)c2)cc1CN1CCOC1=O` [Example 116, 3-[[5-(4-Fluoro-3-methyl-phenyl)-2-methoxy-3-pyridyl]methyl]oxazolidin-2-one], 18 nM. Still for that read-out and setting: under `COc1ncc(-c2ccc(F)c(OC(F)F)c2)cc1CN1C(=O)OC[C@@H]1C` [Example 117, (4S)-3-[[5-[3-(Difluoromethoxy)-4-fluoro-phenyl]-2-methoxy-3-pyridyl]methyl]-4-methyl-oxazolidin-2-one] stands 60 nM.
